Several values for one entry are separate records, joined by “and”; a condition that tells them apart may be missing. Identical values can stand only once.
These molecules were tested against T1, human type 5 17β-hydroxysteroid dehydrogenase (Homo sapiens, UniProt P42330) (assay: Inhibition of human type 5 17β-HSD activity in transfected 293 cells). Conditions: not given.
T1 construct: screen again a human placental λgt11 cDNA to get the full length cDNA clone; expressed in transfected cells; host or cells: human embryonal kidney 293 cells (pCMV / pCMV-neo vector)
T1 sequence (P42330 1-323): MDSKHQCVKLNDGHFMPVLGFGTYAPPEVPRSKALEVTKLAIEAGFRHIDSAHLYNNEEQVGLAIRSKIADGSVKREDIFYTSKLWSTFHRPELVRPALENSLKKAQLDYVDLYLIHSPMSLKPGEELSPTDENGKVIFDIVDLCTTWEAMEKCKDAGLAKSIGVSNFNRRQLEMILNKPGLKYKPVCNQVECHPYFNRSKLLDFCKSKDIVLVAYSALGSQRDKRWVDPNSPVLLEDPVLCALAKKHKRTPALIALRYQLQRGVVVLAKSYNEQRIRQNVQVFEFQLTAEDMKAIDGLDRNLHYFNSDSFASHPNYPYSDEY
Type: cell-based
Parameters: Inhibition Type V 17B-HSD % Inh. At 3 · 10^−7 (second value in parentheses): concentration or dose not given beside the values
Description: The manner in which IC50 was determined is described in “Efficacy of the Preferred Inhibitors”. Lower numbers for IC50 are desirable.
Using a oligoprimer pair (5′-GGA-AAT-CGT-GAC-AGG-GAA-TGG-ATT-CCA-AAC-AG-3′, 5′-GGA-ATT-CTT-TAT-TGT-ATT-TCT-GGC-CTA-TGG-AGT-GAG-3′) derived from human aldoketoreductase (Qin et al., J. Steroid Biochem. Molec. Biol. 46: 673-679, 1993) and polymerase chain reaction (PCR), we have amplified from a human placental λgt11 cDNA library (Clontech Laboratories Inc., Palo Alto, Calif.) a cDNA fragment that was used as probe to screen again a human placental λgt11 cDNA to get the full length cDNA clone. The amplified cDNA fragment was purified on agarose gel and labeled with [α^32P]dCTP (Amersham Corp.) using the random primer labeling kit from Pharmacia Inc. PCR amplification reaction medium contained 50 mM KCl, 10 mM Tris-HCl, pH 8.3, 0.1% gelatin, 1 mM MgCl2, 250 μM dNTP, 0.25 μM oligonucleotide primers, and 200 ng of DNA prepared from human placental λgt11 cDNA library. The aqueous phase was overlaid with 75 μL of mineral oil to avoid evaporation. The mixture was heated at 98° C. for 5 min, following the temperature reduction to 72° C., 1 unit of Taq DNA polymerase was added. Using a DNA Thermal Cycler (Perkin-Elmer Corp.), 30 cycles of amplification were carried out using a step program (94° C., 1 min; 60° C., 1 min; and 72° C., 1 min)/cycle.
Approximately 5×10^5 recombinant phage plaques were screened with 1.5×10^6 cpm/ml of the probe. Prehybridization was performed for 4 h at 42° C. in 50% formamide, 5× Denhardt's solution (1× Denhardt's being 0.02% polyvinyl pyrrolidone, 0.02 Ficoll, 0.02 bovine serum albumin), 5×SSPE (1×SSPE being 0.18M NaCl, 10 mM NaH2PO4, pH 7.4, 1 mM EDTA), 0.1% SDS, and 100 μg/ml yeast tRNA. The probe was denatured by heating at 100° C. for 5 min, before being added to the hybridization solution at 42° C. overnight. Filters were then washed twice at room temperature in 2×SSC (1×SSC being […], pH 7.0), 0.1% SDS, and twice in 0.1×SSC, 0.1% SDS at 60° C. Positive recombinant plaques were purified by replating twice and grown in liquid culture. Phage DNA were isolated by centrifugation for 90 min at 105,000×g, and DNA was then isolated by phenol extraction and precipitation with isopropanol (Karen et al. 1987; In: Current Protocols in Molecular Biology (F. M. Ausubel, R. Brent, E. Kingston, D. D. Moore, T. G. Seidman, T. A. Smith and K. Struhl, eds), Wiley & Sons, New York, pp. 1.13.1-1.13.6).
The phage DNA were digested with EcoRI restriction enzymes and the resulting cDNA fragments were inserted into the EcoRI site downstream to the cytomegalovirus (CMV) promoter of the pCMV vector (kindly provided by Dr. Matthew, Cold Spring Harbor, N.Y., USA). Recombinant pCMV plasmids were amplified in Escherichia Coli DH5α competent cells, and were isolated by alkaline lysis procedure (Maniatis et al., In: Molecular cloning: a laboratory manual, Cold Spring Harbor Laboratory., 1982). Sequencing of double-stranded plasmid DNA was performed according to the dideoxy chain termination method (Sanger et al., PNAS 74: 5453-5467, 1977) using a T7 DNA polymerase sequencing kit (Pharmacia LKB Biotechnology). To avoid errors, all sequences were determined by sequencing both strands of the DNA. Oligonucleotide primers were synthesized in our laboratory with a 394 DNA/RNA synthesizer (Applied Biosystem).
The pCMV vector contain 576 nucleotides of the pCMV promoter (followed by 432 bp of small t intron (fragment 4713-4570) and poly adenylation signal (2825-2536)of SV40, followed by 1989 bp of the Pvu II(628)-AatII (2617) fragment from pUC 19 vector (New England Biolabs) that contains an E. Coli origin of replication and an ampicillin resistance gene for propagation in E. Coli. […]

SMILES | inhibition of type 5 17β-hydroxysteroid dehydrogenase (in words)
CC(=O)O[C@]1(C(C)=O)CCC2C3C=C(C)C4=CC(=O)CC[C@]4(C)C3CC[C@@]21C (some centres unmarked) [megestrol acetate, reference compound] | inhibit that type 5 enzyme

Same assay, conditions: Inhibition Type V 17β-HSD IC50, Table 4′

SMILES | IC50
COCCOc1cc2c(cc1C#N)C1CC[C@@]3(C)C(CC[C@@]34CCC(C)(C)C(=O)O4)C1CC2 (some centres unmarked) [EM-1396] | 0.013 µM

Same assay, conditions: Table 4′; 3 · 10^−6

SMILES | Inhibition Type V 17β-HSD % Inh. at 3 · 10^−6
CC1(C)CC[C@@]2(CC[C@H]3[C@@H]4CCc5c(cc(Br)c(O)c5Br)[C@H]4CC[C@@]32C)OC1=O [EM-1382-CS] | 86%
COCCOc1cc2c(cc1C(F)(F)F)[C@H]1CC[C@@]3(C)[C@@H](CC[C@@]34CCC(C)(C)C(=O)O4)[C@@H]1CC2 [EM-1438, 3-(2′-Methoxyethoxy)-2-trifluoromethyl-1,3,5(10)-estratrien-17(R)-spiro-2′-(5′,5′-dimethyl-6′-oxo)tetrahydropyran] | 95.2%
CC1(C)CCC2(CCC3C4CCc5cc(C(=O)OCc6ccccc6)ccc5C4CCC32C)OC1=O (centres unmarked) [EM-1398] | 89%

Same assay, conditions: Table 4′; 3 · 10^−7

SMILES | Inhibition Type V 17β-HSD % Inh. at 3 · 10^−7
CC1(C)CC[C@@]2(CC[C@H]3[C@@H]4CCc5c(cc(Br)c(O)c5Br)[C@H]4CC[C@@]32C)OC1=O [EM-1382-CS] | 74%
COCCOc1cc2c(cc1C(F)(F)F)[C@H]1CC[C@@]3(C)[C@@H](CC[C@@]34CCC(C)(C)C(=O)O4)[C@@H]1CC2 [EM-1438, 3-(2′-Methoxyethoxy)-2-trifluoromethyl-1,3,5(10)-estratrien-17(R)-spiro-2′-(5′,5′-dimethyl-6′-oxo)tetrahydropyran] | 90.6%
CC1(C)CCC2(CCC3C4CCc5cc(C(=O)OCc6ccccc6)ccc5C4CCC32C)OC1=O (centres unmarked) [EM-1398] | 70%

Same assay, conditions: Table 4′; read-out: Inhibition Type V 17β-HSD IC50

SMILES | IC50
CCS(=O)(=O)Oc1ccc2c(c1)CCC1C2CCC2(C)C1CCC21CCC(C)(C)C(=O)O1 (centres unmarked) [EM-1364-CS] | 0.017 µM
CC1(C)CCC2(CCC3C4CCc5cc(OS(C)(=O)=O)ccc5C4CCC32C)OC1=O (centres unmarked) [EM-1365-CS] | 0.012 µM
CC1(C)CC[C@@]2(CCC3C4CCc5cc(F)ccc5C4CC[C@@]32C)OC1=O (some centres unmarked) [EM-1157-CS] | 0.004 µM and 0.01 µM
CN(C)C(=O)c1cc2c(cc1O)CCC1C2CCC2(C)C1CCC21CCC(C)(C)C(=O)O1 (centres unmarked) [EM-01661-B] | 0.0192 ± 0.001 µM
CC1(C)CC[C@@]2(CCC3C4CCc5cc(C(=O)O)ccc5C4CC[C@@]32C)OC1=O (stereo partly drawn) [EM-1401, 3-Carboxy-1,3,5(10)-estratrien-17(R)-spiro-2′-(5′,5′-dimethyl-6′-oxo)tetrahydropyran] | 0.004 ± 0.0015 µM
CC1(C)CCC2(CCC3C4CCc5cc(O)c([N+](=O)[O-])cc5C4CCC32C)OC1=O (centres unmarked) [EM-1125-CS] | 0.002 µM
CC1(C)CCC2(CCC3C4CCc5c(cc(Cl)c(OS(C)(=O)=O)c5Cl)C4CCC32C)OC1=O (centres unmarked) [EM-1392-CS] | 0.019 µM
CC1(C)CCC2(CCC3C4CCc5cc(OCCN6CCCCC6)ccc5C4CCC32C)OC1=O [EM-1390-CS, 3-(N-piperidyl-ethyl)-1,3,5(10)-estratrien-17(R)-spiro-2′-(5′,5′-dimethyl-6′-oxo)-tetrahydropyran] | 0.048 µM
COCCOc1cc2c(cc1C(=O)N(C)C)C1CCC3(C)C(CCC34CCC(C)(C)C(=O)O4)C1CC2 (centres unmarked) [EM-1413-CS] | 0.017 µM
CCOc1ccc2c(c1)CCC1C2CC[C@@]2(C)C1CC[C@@]21CCC(C)(C)C(=O)O1 (stereo partly drawn) [EM-1369, 3-Ethoxy-1,3,5(10)-estratrien-17(R)-spiro-2′-(5′,5′-dimethyl-6′-oxo)-tetrahydropyran] | 0.046 µM
COc1cc2c(cc1C(F)(F)F)C1CCC3(C)C(CCC34CCC(C)(C)C(=O)O4)C1CC2 [EM-1409, 3-Methoxy-2-trifluoromethyl-1,3,5(10)-estratrien-17(R)-spiro-2′-(5′,5′-dimethyl-6′-oxo)tetrahydropyran] | 0.17 ± 0.07 µM
COC(=O)C1CCC2(CCC3C4CCc5cc(O)ccc5C4CCC32C)OC1=O [PB-132-146, 3-Hydroxy-1,3,5(10)-estratrien-17(R)-2′-(5′-methoxycarbonyl-6′-oxo)tetrahydropyran] | 0.072 ± 0.003 µM
COCCOc1ccc2c(c1)C(=O)CC1C2CCC2(C)C1CCC21CCC(C)(C)C(=O)O1 (centres unmarked) [EM-1408-CS] | 0.0055 ± 0.001 µM
COCCOc1cc2c(cc1C(=O)OC)C1CC[C@@]3(C)C(CC[C@@]34CCC(C)(C)C(=O)O4)C1CC2 (stereo partly drawn) [EM-1402-CS, 2-Carbomethoxy-3-(2″-methoxyethyloxy)-1,3,5(10)-estratrien 17(R)-spiro-2′-(5′,5′-dimethyl-6′-oxo)tetrahydropyran] | 0.012 µM
COc1ccc2c(c1)CCC1C2CCC2(C)C1CCC21CCC(C)(C)C(=O)O1 (centres unmarked) [EM-1370] | 0.043 µM
COc1ccc2c(c1)C(=O)CC1C2CC[C@@]2(C)C1CC[C@@]21CCC(C)(C)C(=O)O1 (some centres unmarked) [EM-1394] | 0.009 µM
CN(C)CCOc1ccc2c(c1)CCC1C2CCC2(C)C1CCC21CCC(C)(C)C(=O)O1 (centres unmarked) [EM-1389-CS] | 0.025 µM
COc1c(Br)cc2c(c1Br)CCC1C2CCC2(C)C1CCC21CCC(C)(C)C(=O)O1 (centres unmarked) [EM-1385-CS] | 0.051 µM
CC1CCC2(CCC3C4CCc5ccccc5C4CCC32C)OC1=O (centres unmarked) [EM-1025] | 0.0061 µM and 0.0043 µM
CN(C)C(=O)c1ccc2c(c1)CCC1C2CCC2(C)C1CCC21CCC(C)(C)C(=O)O1 (centres unmarked) [EM-1403] | 0.0072 ± 0.0016 µM
CSCCOc1ccc2c(c1)CCC1C2CCC2(C)C1CCC21CCCC(=O)O1 [CS-242, 3-Methylthioethyloxy-1,3,5(10)-estratrien-17(R)-spiro-2′-(6′-oxo) Tetrahydropyran] | 0.0066 ± 0.0009 µM
COC(=O)c1cc2c(cc1O)CCC1C2CCC2(C)C1CCC21CCC(C)(C)C(=O)O1 (centres unmarked) [EM-01662] | 0.035 ± 0.005 µM
COCCOc1cc2c(cc1Cl)C1CCC3(C)C(CCC34CCC(C)(C)C(=O)O4)C1CC2 (centres unmarked) [EM-1371-CS] | 0.019 µM and 0.02 µM

Same assay, conditions: first of two concentrations, 3 · 10^−7

SMILES | Inhibition Type V 17B-HSD % Inh. At 3 · 10^−7 (first value in parentheses)
CC1=C[C@@H]2[C@H](CC[C@]3(C)C(=O)C4(CCCCC4)C[C@@H]23)[C@@]2(C)CCC(=O)C=C12 [EM-925] | (46%
C[C@]12CCC(=O)C=C1C=C[C@@H]1[C@@H]2CC[C@]2(C)C(=O)C3(CC4CC4C3)C[C@@H]12 (some centres unmarked) [EM-1299, 4,6-Androstadien-3,17-dione-16-spirobicyclo[3′.1′.0′]-hexane] | (73%

Same assay, conditions: read-out: Inhibition Type V 17B-HSD IC50

SMILES | IC50
CCC[C@]1(F)CC2C3C=CC4=CC(=O)CC[C@]4(C)C3CC[C@]2(C)C1=O (some centres unmarked) [EM-1183] | 0.0046 ± 0.0004 µM
CCCC(=O)O[C@]1(C)C(=O)CCC2C3C=C(C)C4=CC(=O)CC[C@]4(C)C3CC[C@@]21C (some centres unmarked) [EM-1078] | 0.0038 ± 0.0006 µM

Same assay, conditions: read-out: Inhibition Type V 17β-HSD IC50

SMILES | IC50
COc1ccc(CC(=O)O[C@]2(C(C)=O)CCC3C4C=C(C)C5=CC(=O)C=C[C@]5(C)C4CC[C@@]32C)cc1 (some centres unmarked) [EM-1291] | 0.007 ± 0.001 µM
CCCC(=O)OC1(C(C)=O)CCC2C3C=C(C)C4=CC(=O)CC(C)C4(C)C3CCC21C (centres unmarked) [CS-245] | 0.0032 ± 0.0001 µM
CC(=O)O[C@]1(C(C)=O)CCC2C3C=C(C)C4=CC(=O)CC[C@]4(C)C3CC[C@@]21C (some centres unmarked) [megestrol acetate, reference compound] | 0.0174 ± 0.0028 µM
CC(=O)[C@@]1(OC(=O)CCCCF)CCC2C3C=C(C)C4=CC(=O)CC[C@]4(C)C3CC[C@@]21C (some centres unmarked) [EM-1195-CS] | 0.004 ± 0.0005 µM

Same assay, conditions: second of two concentrations, 3 · 10^−7

SMILES | Inhibition Type V 17B-HSD % Inh. At 3 · 10^−7 (second value in parentheses)
CC1=C[C@@H]2[C@H](CC[C@]3(C)C(=O)C4(CCCCC4)C[C@@H]23)[C@@]2(C)CCC(=O)C=C12 [EM-925] | 81) %
C[C@]12CCC(=O)C=C1C=C[C@@H]1[C@@H]2CC[C@]2(C)C(=O)C3(CC4CC4C3)C[C@@H]12 (some centres unmarked) [EM-1299, 4,6-Androstadien-3,17-dione-16-spirobicyclo[3′.1′.0′]-hexane] | 99) %
